Reference: paper PMC8744835, “Sterically Hindered Quaternary Phosphonium Salts (QPSs): Antimicrobial Activity and Hemolytic and Cytotoxic Properties” (International Journal of Molecular Sciences, 2021)

Legend:
Chang liver cell line = assay: Cytotoxicity assay (Cytell Cell Imaging, DAPI/propidium iodide); type: cell-based, human; details: for IC50: Homo sapiens, Chang liver, read-out: IC50 (concentration that causes the death of 50% of the cells), Chang liver cells; for IC50 (concentration that causes the death of 50% of the cells): Chang liver cells
human erythrocytes = assay: Hemolytic activity; type: cell-based; details: red blood cells
Source text: An important characteristic when assessing the biological activity of new chemical compounds is their cytotoxic effect on eukaryotic cells. The ability of an investigated compound to cause the destruction of human erythrocytes illustrates its toxic effect on the internal environment. The hemolysis assay is a simple screening test that can help in the study of cytotoxicity in more complex models. Cell lines obtained from various human organs and tissues that allow for adequate estimation of the effects of new potential drugs on cell metabolism can serve as experimental models.
The hemolytic activity of the QPSs was estimated by comparing the optical density of a solution containing the test compound with that of blood at 100% hemolysis. The experiments were carried out as previously described.

[1] = test system: Staphylococcus aureus ATCC 6538P FDA 209P; assay: Antimicrobial activity, serial dilution technique in Mueller–Hinton Broth 2; type: cell-based; details: average of three ± SD, - means non-active; for MBC: read-out: Minimum Bactericidal and Fungicidal Concentration (MBC, MFC), Sa
How it was run: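 Using a broth serial dilution method in Mueller–Hinton Broth 2, S. aureus ATCC 6538P FDA 209P (3.0 × 10^5 cfu/mL) was exposed to compounds at 37 °C and observed daily over 5 days. MIC was the lowest concentration preventing growth; bacteriostatic absence of growth was also noted, with three replicate experiments.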

[2] = test system: Bacillus cereus ATCC 10702 NCTC 8035; assay: as above; type: cell-based; details: Bacillus cereus, Bc; average of three ± SD; - means non-active; read-out: Minimum Bactericidal and Fungicidal Concentration (MBC, MFC), Bc
How it was run: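 Compounds were serially diluted in Mueller–Hinton Broth 2 and inoculated with the Gram-positive strain Bacillus cereus ATCC 10702 NCTC 8035 at 3.0 × 10^5 cfu/mL, then incubated at 37 °C. Observations were taken every 24 h over 5 days in three repeat experiments. The MIC was the lowest concentration that stopped growth, with bacteriostatic absence of growth also noted.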

[3] = test system: Enterococcus faecalis ATCC 2921; assay: as above; type: cell-based; details: Enterococcus faecalis, ATCC2921, Ef, average of three ± SD, - means non-active
How it was run: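 Antibacterial activity against Enterococcus faecalis ATCC 2921 was assessed by serial dilution in Mueller–Hinton Broth 2 with a bacterial load of 3.0 × 10^5 cfu/mL. Cultures were incubated at 37 °C, with growth recorded every 24 h for 5 days, and the experiment was performed three times.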

[4] = test system: Escherichia coli ATCC 25922; assay: as above; type: cell-based; details: Escherichia coli, ATCC25922, Ec; average of three ± SD; - means non-active; read-out: Minimum Inhibitory Concentration (MIC), Ec
How it was run: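 Growth inhibition is scored in Mueller–Hinton Broth 2 dilution series seeded with 3.0 × 10^5 cfu/mL and held at 37 °C for up to 5 days. Values reported are MICs, the lowest concentration without growth.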

[5] = test system: Escherichia coli ATCC 25922; assay: as above; type: cell-based; details: Escherichia coli, ATCC25922, Ec; average of three ± SD; - means non-active; read-out: Minimum Bactericidal and Fungicidal Concentration (MBC, MFC), Ec
[6] = test system: methicillin-resistant S. aureus MRSA-1; assay: as above; type: cell-based, Staphylococcus aureus; details: Staphylococcus aureus, MRSA, MRSA-1 (resistant to fluoroquinolones and beta-lactams); - means non-active; read-out: Minimum Inhibitory Concentration (MIC), MRSA-1
How it was run: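 Antimicrobial activity against methicillin-susceptible Staphylococcus aureus MRSA-1, a hospital isolate from a chronic tonsillitis patient that is resistant to fluoroquinolones and beta-lactams, was determined by serial dilution in Mueller–Hinton Broth 2. The bacterial load was 3.0 × 10^5 cfu/mL, incubation was at 37 °C, and growth was recorded every 24 h for 5 days.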

SMILES	IC50 (Chang liver cell line) [µg/mL]	HC50 (concentration that causes 50% hemolysis of erythrocytes) (human erythrocytes) [µg/mL]	also measured
CC[P+](C(C)(C)C)(C(C)(C)C)C(C)(C)C [Compound 2a]	> 100	> 125	
CCCCCCCCC[P+](C(C)(C)C)(C(C)(C)C)C(C)(C)C [Compound 9a]	> 100	> 125	MBC ([1]; Staphylococcus aureus, Sa): 15.6 µg/mL; MIC ([1]; Staphylococcus aureus, Sa, read-out: Minimum Inhibitory Concentration (MIC), Sa): 7.8 µg/mL; MBC [2]: 125 µg/mL; MBC ([3]; read-out: Minimum Bactericidal and Fungicidal Concentration (MBC, MFC), Ef): 125 µg/mL; MIC ([3]; read-out: Minimum Inhibitory Concentration (MIC), Ef): 62.5 µg/mL; MIC [4]: 125 µg/mL; MBC [5]: 125 µg/mL; MIC [6]: 7.8 µg/mL
CCCCCC[P+](C(C)(C)C)(C(C)(C)C)C(C)(C)C [Compound 6b]		> 125	Minimum Inhibitory Concentration (MIC), Sa [1]: 250 ± 19 µg/mL; IC50 (concentration that causes the death of 50% of the cells) (Chang liver cell line): > 100 µg/mL
CCCCC[P+](C(C)(C)C)(C(C)(C)C)C(C)(C)C [Compound 5b]	> 100	> 125	
CCCC[P+](C(C)(C)C)(C(C)(C)C)C(C)(C)C [Compound 4a]	> 100	> 125	
CCCCCCC[P+](C(C)(C)C)(C(C)(C)C)C(C)(C)C [Compound 7b]		> 125	MBC ([1]; Staphylococcus aureus, Sa): 62.5 µg/mL; IC50 (concentration that causes the death of 50% of the cells) (Chang liver cell line): > 100 µg/mL
CC(C)(C)[P+](C)(C(C)(C)C)C(C)(C)C [Compound 1a]	> 100	> 125	
